Legend:
U-251 = assay: Cytotoxicity against human U251 cells after 48 hrs by SRB assay; assay type: functional, cell-based; conditions: U-251, 48 h
K562 = assay: Cytotoxicity against human K-562 cells after 48 hrs by SRB assay; assay type: functional, cell-based; conditions: K562, 48 h

Compound: C=C(C)[C@@H]1CC[C@@]2(C)[C@H]1[C@H]1CCC3[C@@]4(C)CC[C@H](O)C(C)(C)[C@@H]4CC[C@@]3(C)[C@]1(C)C[C@@H]2O (stereo not given in full) [CALENDULADIOL]
- IC50 (U-251): 48.4 µM
- IC50 (K562): 31.4 µM

Compound: C=C(C)[C@@H]1CC[C@@]2(C)[C@H]1[C@H]1CC[C@@H]3[C@@]4(C)CC[C@H](OC(=O)/C=C/c5ccc(O)cc5)C(C)(C)[C@@H]4CC[C@@]3(C)[C@]1(C)C[C@@H]2O
- IC50 (U-251): 41 µM

Compound: COc1cccc2c1C(=O)c1c(O)c3c(c(O)c1C2=O)C[C@@](O)(C(=O)CO)C[C@@H]3O[C@H]1C[C@H](N)[C@H](O)[C@H](C)O1 [DOXORUBICIN]
- IC50 (U-251): 0.32 µM
- IC50 (K562): 0.28 µM

From ChEMBL document CHEMBL1158109, “Cytotoxic cis-fused bicyclic sesquiterpenoids from Jatropha neopauciflora” (J Nat Prod, 2006)
